This is an account of results in article PMC11144398, “Crizotinib inhibits the metabolism of tramadol by non-competitive suppressing the activities of CYP2D1 and CYP3A2” (PeerJ, 2024).

Series [1] concerns tramadol metabolism in human liver microsomes. As to the kind of experiment: Liver microsomal incubation assay: inhibition of tramadol metabolism in HLM. The class given is in vitro ADME. The following applies: human, human liver microsomes, pH 7.4, probe tramadol 100 µM, tramadol 100 µM, crizotinib 0.01-100 µM. On the procedure: (§1) All the substance meet the requirements for analysis.
(§2) To obtain the Michaelis kinetic parameters of tramadol in RLM and HLM, a 200 µL incubation system was established containing 2 µL RLM or HLM (0.2 mg/mL), 186 µL 1xPBS buffer (pH = 7.4), 2 µL tramadol (10–500 µM), and 10 µL NADPH (1 mM). The mixture was pre-incubated for 5 min without NADPH in a water bath shaking at 37 °C. Then, NADPH was added to initiate the reaction, and the mixture was incubated for another 30 min. The reaction was terminated by adding 400 µL of cold ACN and 20 µL of IS (500 ng/mL).
(§3) To determine the half-maximal inhibitory concentration (IC50), the concentration of crizotinib was set at 0.01, 0.1, 1, 10, 25, 50, and 100 µM, while the concentration of tramadol was constant at 60 µM in RLM or 100 µM in HLM (according to Km).
(§4) All data were presented as mean ± SD (standard deviation).

The test system of series [2] is tramadol metabolism in human liver microsomes (HLM). Described as above. It counts as in vitro ADME. On the procedure:
as §1, §2, §3, §4

Series [3] is described as follows: Pharmacokinetics of tramadol and O-desmethyl tramadol in SD rats with or without crizotinib. The note with it: single dose of crizotinib 45 mg/kg, tramadol 20 mg/kg. The text has this:
Ultra-performance liquid chromatography-tandem mass spectrometry (UPLC-MS/MS) was utilized to measure the concentration of both tramadol and O-desmethyl tramadol. Separation was achieved using a Waters Acquity UPLC BEH C18 column, with dimensions of 2.1 mm × 50 mm and 1.7-µm particle size (Waters Corp., Milford, MA, USA), and quantitation was completed using a Waters XEVO TQD triple quadruple mass spectrometer. The mobile phase was composed of 0.1% formic acid (A) and ACN (B), and the gradient elution was carried out with a flow rate of 0.4 mL/min, following the procedure: 90–10% A (0–1.4 min), 10–90% A (1.4–1.5 min), and 90% A (1.5–2.0 min). Positive mode was used to detect the analytes with the following transitions: m/z 264.2 →58.0, m/z 250.2 →58.2, and m/z 285.0 →154.0 for tramadol, O-desmethyl tramadol, and diazepam (used as an internal standard, IS), respectively. The collision energy was 20 V for tramadol and O-desmethyl tramadol, and 25 V for diazepam. The standard for tramadol and O-desmethyl tramadol were dissolved in a small amount of DMSO (the concentration was 1 mg/mL) then diluted with acetonitrile (the final concentration was 1 ng/mL–1,000 ng/mL). Diazepam was diluted with methanol gradually to 500 ng/mL).
SD male rats (280 ± 15 g) were purchased from the Shanghai Animal Experimental Center. Before the experiment, the rats were kept in the animal room for two weeks with adequate water and food in order to adapt to the new environment. The room temperature was kept at 20–25 °C and the humidity was kept at 50%–65%. The change period of light and dark conditions was 12 h, which simulates the change of day and night. All animal experiments were approved by the Ethics Committee of Wenzhou Medical University (Approval number: xmsq2022-0621).
Generally speaking, only when at least five or more animals are involved in the experiment can the results be convincing. Thus, twenty SD rats were randomly divided into four groups with five animals per group: group A received a single dose of 20 mg/kg of tramadol; group B received a single dose of 45 mg/kg of crizotinib and 20 mg/kg of tramadol; group C received multiple doses of 0.5% carboxymethylcellulose sodium salt (CMC-Na) for 7 days and a single dose of 20 mg/kg of tramadol; and group D received multiple doses of 45 mg/kg of crizotinib for 7 days and a single dose of 20 mg/kg of tramadol. Prior to the experiment, all rats were fasted for 12 h but allowed free access to water. Once the experiment began, 0.5% CMC-Na and crizotinib were administered to groups C and D for 7 days, respectively, then to groups A and B on the last day of the experiment. After 30 min, all rats were orally administered 20 mg/kg of tramadol. Blood samples were collected from the tail vein at 5 min, 15 min, 30 min, 1 h, 2 h, 3 h, 4 h, 6 h, 8 h, 10 h, 12 h, and 24 h following tramadol administration. […] The samples were centrifuged at 2400 × g for 10 min to obtain serum. Each 50 µL serum was mixed with 150 µL ACN and 20 µL IS (500 ng/mL). After vortexing for 2 min and centrifugation at 16200 × g for 10 min at 4 °C, the supernatant was obtained, then we used UPLC-MS/MS analysis to detect the concentration of tramadol and O-desmethyl tramadol. After the experiment, all the animals were euthanized by 5% isoflurane inhalation anesthesia.
The Michaelis–Menten, IC50, and Lineweaver-Burk plots were generated using GraphPad Prism 6.0 software (GraphPad Software, Boston, MA, USA) with corresponding values for Km, IC50, and Ki (inhibition constant).

`C[C@@H](Oc1cc(-c2cnn(C3CCNCC3)c2)cnc1N)c1c(Cl)ccc(F)c1Cl` [crizotinib] gave an IC50 at 30 min in series [1] of 11.9 ± 0.25 µM. Besides, in series [2] (Lineweaver-Burk plot), the “inhibition mode of tramadol metabolism” value is “non-competitive”. In series [2] (Lineweaver-Burk, crizotinib 0, 5, 10, 20 µM, tramadol 25-200 µM), this compound registered an inhibitory constant (Ki) of 14.4 µM. Further, in series [3], the “effect on pharmacokinetic parameters of O-desmethyl tramadol” value is “no significant differences”.
